In patent EP4656642A1, “ESTROGEN RECEPTOR PROTEOLYSIS TARGETING CHIMERA COMPOUND AND USE THEREOF” (GAN & LEE PHARM CO., LTD, priority 2023, dated 2024):

How the values were obtained:
Assay type in all cases: cell-based
T-47D cells = test: Inhibition of cell proliferation in T-47D cells (CCK-8, 6 days); conditions: 6 days of treatment
Excerpt: Test Example 2: Inhibitory effect of the PROTAC compounds provided in the present disclosure on cell proliferation in T-47D cells (source ATCC)
The complete medium required for T-47D cells was 1640 ( ATCC, Product number: A10491-01) basal medium containing 10% fetal bovine serum. T-47D cells were inoculated in 96-well plates at a density of 3,000 cells/well, and different concentrations of the PROTAC compounds 1-55 provided in the examples of the present disclosure and a positive control sample ARV-471 (source: Innochem) were prepared to treat cells, and the cells were treated at 37°C in a cell culture incubator with 5% CO2 for 6 days. Cell viability was detected using a CCK-8 kit (Beyotime, Product number: C0040) according to the manufacturer's instructions. […] Table 2 IC50 values for inhibition of the proliferation of T-47D cells by the PROTAC compounds provided by the present disclosure and the positive control sample

ERα [1] = molecular target: T1, ERα (Homo sapiens, UniProt P03372); test: Degradation of ERα in T-47D cells (immunoblotting, 4 h); set-up: host or cells: T-47D
T1 sequence (P03372 1-595): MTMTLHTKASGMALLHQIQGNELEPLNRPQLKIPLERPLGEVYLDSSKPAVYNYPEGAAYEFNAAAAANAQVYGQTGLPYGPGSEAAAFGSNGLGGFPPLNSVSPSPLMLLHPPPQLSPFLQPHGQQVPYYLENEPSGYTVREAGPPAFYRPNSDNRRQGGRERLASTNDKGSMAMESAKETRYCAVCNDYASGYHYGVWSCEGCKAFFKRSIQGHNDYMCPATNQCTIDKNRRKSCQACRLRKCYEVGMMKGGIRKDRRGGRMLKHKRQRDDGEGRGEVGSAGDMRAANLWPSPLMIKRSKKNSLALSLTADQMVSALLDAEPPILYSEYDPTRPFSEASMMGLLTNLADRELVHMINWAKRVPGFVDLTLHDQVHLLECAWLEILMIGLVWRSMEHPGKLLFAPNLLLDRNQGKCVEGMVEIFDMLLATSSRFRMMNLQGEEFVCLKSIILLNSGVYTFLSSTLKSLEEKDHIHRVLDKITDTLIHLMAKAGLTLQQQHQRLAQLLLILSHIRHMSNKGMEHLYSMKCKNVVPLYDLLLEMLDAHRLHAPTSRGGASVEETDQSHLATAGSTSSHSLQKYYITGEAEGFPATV
In short: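 ERα protein levels were assessed by immunoblot of RIPA lysates (with protease inhibitor) after 4 h exposure at 37°C. Compound was added in DMSO to T-47D cells at final concentrations of 0.15-1000 nM.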

ERα [2] = molecular target: T1, ERα; test: Degradation of ERα in MCF-7 cells (immunoblotting, 4 h)
In short: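 Degradation rate reflects ERα band intensity, corrected to an internal reference protein, relative to control. Values come from Western blotting of lysates from MCF-7 cells exposed 4 h at 37°C to compounds at final concentrations of 0.15-1000nM.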

MCF-7 cells = test: Inhibition of cell proliferation of MCF-7 cells (CCK-8, 9 days); conditions: treated for 9 days, CCK-8 kit (Table 6)
In short: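 Read-out was CCK-8 viability after 9-day continuous exposure (37°C, 5% CO2) of MCF-7 cells plated at 800/well in 10% FBS DMEM across several compound concentrations. Values are proliferation IC50s.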

SMILES	IC50 (T-47D cells; Table 3) [nM]	Degradation rate (%) of ERα in T-47D cells (ERα [1]; 10nM compound) [%]	IC50 (T-47D cells; Table 2) [nM]	Degradation rate (%) of ERα in MCF-7 cells (ERα [2]; 10nM compound) [%]	Degradation rate (%) of ERα in T-47D cells (ERα [1]; 1nM compound) [%]	Degradation rate (%) of ERα in MCF-7 cells (ERα [2]; 1nM compound) [%]	IC50 (MCF-7 cells) [nM]
O=C1CCC(N2Cc3cc4c(cc3C2=O)CCC2(CN(CC3CCC5(CC3)CCN(c3ccc([C@@H]6c7ccc(O)cc7CC[C@@H]6c6ccccc6)cc3)CC5)C2)O4)C(=O)N1 (stereo partly drawn) [A3 8]	15	–	–	–	–	–	–
O=C1CCC(N2C(=O)c3cc4c(cc3C2=O)OC2(CC4)CCN(CC3CCN(c4ccc(C5c6ccc(O)cc6CCC5c5ccccc5)cc4)C3)CC2)C(=O)N1 (stereo not drawn) [A9]	–	-25	24	-24	–	–	–
O=C1CCC(N2C(=O)c3cc4c(cc3C2=O)C2(CCN(C3CCN(c5ccc(C6c7ccc(O)cc7CCC6c6ccccc6)cc5)CC3)CC2)CO4)C(=O)N1 (stereo not drawn) [A16]	–	-22	91	-5	–	–	–
O=C1CCC(N2C(=O)c3cc4c(cc3C2=O)C2(CCN(C3CC5(CCN(c6ccc(C7c8ccc(O)cc8CCC7c7ccccc7)cc6)CC5)C3)CC2)CO4)C(=O)N1 (stereo not drawn) [A19]	–	18	20	18	–	–	–
O=C1CCC(N2C(=O)c3cc4c(cc3C2=O)C2(CCN(CC3CCN(c5ccc(C6c7ccc(O)cc7CCC6c6ccccc6)cc5)C3)CC2)CO4)C(=O)N1 (stereo not drawn) [B1]	–	-15	38	-35	–	–	–
O=C1CCC(N2C(=O)c3cc4c(cc3C2=O)C2(CCN(CC3CN(c5ccc([C@@H]6c7ccc(O)cc7CC[C@@H]6c6ccccc6)cc5)C3)CC2)CO4)C(=O)N1 (stereo partly drawn) [B3]	–	-18	100	-14	–	–	–
O=C1CCC(N2Cc3c(ccc4c3OCC43CCN(C(=O)[C@H]4C[C@H](OC5CCN(c6ccc([C@@H]7c8ccc(O)cc8CC[C@@H]7c7ccccc7)cc6)CC5)C4)CC3)C2=O)C(=O)N1 (stereo partly drawn) [K48]	–	80	–	42	47	20	9210
O=C1CCC(N2Cc3c(ccc4c3OCC43CCN(C4CCC(OC5CCN(c6ccc([C@@H]7c8ccc(O)cc8CC[C@@H]7c7ccccc7)cc6)CC5)CC4)CC3)C2=O)C(=O)N1 (stereo partly drawn) [K50]	–	84	–	72	52	19	83.3
O=C1CCC(N2C(=O)c3ccc4c(c3C2=O)OCC42CCN(C3CCC4(CC3)CCN(c3ccc([C@@H]5c6ccc(O)cc6CC[C@@H]5c5ccccc5)cc3)CC4)CC2)C(=O)N1 (stereo partly drawn) [L4]	–	44	–	48	9	9	970
O=C1CCC(N2Cc3cc4c(cc3C2=O)C2(CCN(C3CCC5(CC3)CCN(c3ccc([C@@H]6c7ccc(O)cc7CC[C@@H]6c6ccccc6)cc3)CC5)CC2)CO4)C(=O)N1 (stereo partly drawn) [L5]	–	45	–	4	12	6	830
O=C1CCC(N2Cc3ccc4c(c3C2=O)OCC2(CCN(C3CCC5(CC3)CN(c3ccc([C@@H]6c7ccc(O)cc7CC[C@@H]6c6ccccc6)cc3)C5)CC2)C4)C(=O)N1 (stereo partly drawn) [L6]	–	68	–	45	29	14	930
O=C1CCC(N2C(=O)c3ccc4c(c3C2=O)OCC42CCN(C3CCC4(CC3)CN(c3ccc([C@@H]5c6ccc(O)cc6CC[C@@H]5c5ccccc5)cc3)C4)CC2)C(=O)N1 (stereo partly drawn) [L7]	–	34	–	-4	11	4	510
O=C1CCC(N2Cc3ccc4c(c3C2=O)OCC2(CCN(C3CC5(CCN(c6ccc([C@@H]7c8ccc(O)cc8CC[C@@H]7c7ccccc7)cc6)CC5)C3)CC2)C4)C(=O)N1 (stereo partly drawn) [L9]	–	49	–	29	15	10	1420
O=C1CCC(N2Cc3c(ccc4c3OCC43CCN(C4CC5(C4)CN(c4ccc([C@@H]6c7ccc(O)cc7CC[C@@H]6c6ccccc6)cc4)C5)CC3)C2=O)C(=O)N1 (stereo partly drawn) [L18]	–	8	–	5	13	-6	544
O=C1CCC(N2C(=O)c3ccc4c(c3C2=O)OCC42CCN(C3CC4(C3)CN(c3ccc([C@@H]5c6ccc(O)cc6CC[C@@H]5c5ccccc5)cc3)C4)CC2)C(=O)N1 (stereo partly drawn) [L19]	–	9	–	14	12	9	86
O=C1CCC(N2Cc3c(ccc4c3OC3(CC4)CCN(C4CCC5(CC4)CCN(c4ccc([C@@H]6c7ccc(O)cc7CC[C@@H]6c6ccccc6)cc4)CC5)CC3)C2=O)C(=O)N1 (stereo partly drawn) [L20]	–	41	–	6	28	-12	2190
O=C1CCC(N2Cc3c(ccc4c3OC3(CC4)CCN(C4CC5(CCN(c6ccc([C@@H]7c8ccc(O)cc8CC[C@@H]7c7ccccc7)cc6)CC5)C4)CC3)C2=O)C(=O)N1 (stereo partly drawn) [L21]	–	21	–	-17	26	-11	91
O=C1CCC(N2Cc3c(ccc4c3OC3(CC4)CCN(C4CCC5(CC4)CN(c4ccc([C@@H]6c7ccc(O)cc7CC[C@@H]6c6ccccc6)cc4)C5)CC3)C2=O)C(=O)N1 (stereo partly drawn) [L22]	–	9	–	18	-7	3	111

Results, then the compound that gave them:

IC50 (T-47D cells; Table 3) [nM]	Degradation rate (%) of ERα in T-47D cells (ERα [1]; 10nM compound) [%]	IC50 (T-47D cells; Table 2) [nM]	Degradation rate (%) of ERα in MCF-7 cells (ERα [2]; 10nM compound) [%]	Degradation rate (%) of ERα in T-47D cells (ERα [1]; 1nM compound) [%]	Degradation rate (%) of ERα in MCF-7 cells (ERα [2]; 1nM compound) [%]	IC50 (MCF-7 cells) [nM]	SMILES
–	–	101	–	–	–	–	O=C1CCC(N2C(=O)c3cc4c(cc3C2=O)OC2(CC4)CN(C3CC4(CCN(c5ccc(C6c7ccc(O)cc7CCC6c6ccccc6)cc5)CC4)C3)C2)C(=O)N1 (stereo not drawn) [M9]
–	54	14	–	22	–	–	O=C1CCC(N2C(=O)c3cc4c(cc3C2=O)OC2(CC4)CN(C3CC4(CCN(c5ccc([C@@H]6c7ccc(O)cc7CC[C@@H]6c6ccccc6)cc5)CC4)C3)C2)C(=O)N1 (stereo partly drawn) [M10]
1.18	79	–	68	58	54	–	CC1(C(=O)N2CCC(N3CCC4(CC3)COc3c4ccc4c3CN(C3CCC(=O)NC3=O)C4=O)CC2)CCN(c2ccc([C@@H]3c4ccc(O)cc4CC[C@@H]3c3ccccc3)cc2)CC1 (stereo partly drawn) [N1]
0.87	62	–	55	35	34	–	O=C1CCC(N2Cc3c(ccc4c3OCC43CCN(CC4(F)CCN(CC5CCN(c6ccc([C@@H]7c8ccc(O)cc8CC[C@@H]7c7ccccc7)cc6)CC5)CC4)CC3)C2=O)C(=O)N1 (stereo partly drawn) [N6]
–	57	–	64	53	35	4.29	O=C1CCC(N2Cc3c(ccc4c3OCC43CCN(C(=O)[C@H]4CC[C@@H](N(CC5CC5)CC5CCN(c6ccc([C@@H]7c8ccc(O)cc8CC[C@@H]7c7ccccc7)cc6)CC5)CC4)CC3)C2=O)C(=O)N1 (stereo partly drawn) [N11]
–	–	180	–	–	–	–	O=C1CCC(N2C(=O)c3cc4c(cc3C2=O)OCC2(CCN(C3CC5(C3)CN(c3ccc(C6c7ccc(O)cc7CCC6c6ccccc6)cc3)C5)CC2)C4)C(=O)N1 (stereo not drawn) [O2]
